PubChem BioAssay AID1963872 (Molecular Pharmacology Branch, DTP, NCI, 2024)

Test system: KRAS patient-derived spheroids with HUVEC/MSC, viability
Experiment: Anticancer human tumor 519858-162-T-J1-PDC patient-derived colon adenocarcinoma cell line growth inhibition [KRAS2]
Conditions: for viability, T/C: stronger effect = lower value
Procedure, shortened: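 KRAS-mutant tumor cells were grown as spheroids with HUVEC endothelial cells and human MSCs as stroma. Targeted agents were tested alone and with KRAS pathway inhibitors. Doses started at or near clinical Cmax, or 10 microM, descending half-log.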

[1] = curve of first compound, second compound 0.1 µM
[2] = curve of first compound, second compound 0.316 µM
[3] = curve of first compound, second compound 1 µM
[4] = curve of first compound, second compound 3.16 µM
[5] = curve of first compound, second compound 10 µM
[6] = second compound 0.1 µM, first compound 0.01 µM
[7] = second compound 0.1 µM, first compound 0.0316 µM
[8] = second compound 0.1 µM, first compound 0.1 µM
[9] = second compound 0.1 µM, first compound 0.316 µM
[10] = second compound 0.1 µM, first compound 1 µM
[11] = second compound 0.1 µM, first compound 3.16 µM
[12] = second compound 0.316 µM, first compound 0.01 µM
[13] = second compound 0.316 µM, first compound 0.0316 µM
[14] = second compound 0.316 µM, first compound 0.1 µM
[15] = second compound 0.316 µM, first compound 0.316 µM
[16] = second compound 0.316 µM, first compound 1 µM
[17] = second compound 0.316 µM, first compound 3.16 µM
[18] = second compound 1 µM, first compound 0.01 µM
[19] = second compound 1 µM, first compound 0.0316 µM
[20] = second compound 1 µM, first compound 0.1 µM
[21] = second compound 1 µM, first compound 0.316 µM
[22] = second compound 1 µM, first compound 1 µM
[23] = second compound 1 µM, first compound 3.16 µM
[24] = second compound 3.16 µM, first compound 0.01 µM
[25] = second compound 3.16 µM, first compound 0.0316 µM
[26] = second compound 3.16 µM, first compound 0.1 µM
[27] = second compound 3.16 µM, first compound 0.316 µM
[28] = second compound 3.16 µM, first compound 1 µM
[29] = second compound 3.16 µM, first compound 3.16 µM
[30] = second compound 10 µM, first compound 0.01 µM
[31] = second compound 10 µM, first compound 0.0316 µM
[32] = second compound 10 µM, first compound 0.1 µM
[33] = second compound 10 µM, first compound 0.316 µM
[34] = second compound 10 µM, first compound 1 µM
[35] = second compound 10 µM, first compound 3.16 µM
[36] = second compound 0.1 µM, first compound 10 µM
[37] = second compound 0.316 µM, first compound 10 µM
[38] = second compound 1 µM, first compound 10 µM
[39] = second compound 3.16 µM, first compound 10 µM
[40] = second compound 10 µM, first compound 10 µM
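Note: compound exposure lasted seven days before readout.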
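Throughout, for viability, T/C: 100% = DMSO vehicle control viability.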

Compound: CC1COCCN1c1cc(-c2ccnn2C)c2ccnc(-c3ccn[nH]3)c2n1 (configuration not stated) + COc1cc2nc(C)nc(NC(C)c3cc(N)cc(C(F)(F)F)c3)c2cc1OC1CCOC1
- IC50 [1]: 1400 nM
- IC50 [2]: 1220 nM
- IC50 [3]: 672 nM
- IC50 [4]: 319 nM
- IC50 [5]: 138 nM
- viability, T/C [6]: 80.5%
- viability, T/C [7]: 69.2%
- viability, T/C [8]: 76.3%
- viability, T/C [9]: 57.6%
- viability, T/C [10]: 57.3%
- viability, T/C [11]: 40%
- viability, T/C [12]: 74.1%
- viability, T/C [13]: 62.8%
- viability, T/C [14]: 68.7%
- viability, T/C [15]: 61.5%
- viability, T/C [16]: 56.2%
- viability, T/C [17]: 28.2%
- viability, T/C [18]: 65.9%
- viability, T/C [19]: 67.6%
- viability, T/C [20]: 56.8%
- viability, T/C [21]: 53.7%
- viability, T/C [22]: 51.3%
- viability, T/C [23]: 30%
- viability, T/C [24]: 65.3%
- viability, T/C [25]: 59%
- viability, T/C [26]: 53.9%
- viability, T/C [27]: 50.1%
- viability, T/C [28]: 28.4%
- viability, T/C [29]: 37.6%
- viability, T/C [30]: 92.7%
- viability, T/C [31]: 75.5%
- viability, T/C [32]: 61.8%
- viability, T/C [33]: 28.2%
- viability, T/C [34]: 15%
- viability, T/C [35]: 19.9%

Compound: COc1cc2nccc(Oc3ccc(NC(=O)C4(C(=O)Nc5ccc(F)cc5)CC4)cc3)c2cc1OC + C=CC(=O)N1CCN(c2nc(=O)n(-c3c(C)ccnc3C(C)C)c3nc(-c4c(O)cccc4F)c(F)cc23)C(C)C1
- IC50 [1]: > 10000 nM
- IC50 [2]: > 10000 nM
- IC50 [3]: > 10000 nM
- IC50 [4]: > 10000 nM
- IC50 [5]: > 10000 nM
- viability, T/C [7]: 77.8%
- viability, T/C [8]: 91.2%
- viability, T/C [9]: 93.5%
- viability, T/C [10]: 93.6%
- viability, T/C [11]: 71.8%
- viability, T/C [36]: 185%
- viability, T/C [13]: 97.1%
- viability, T/C [14]: 99%
- viability, T/C [15]: 92.3%
- viability, T/C [16]: 86.6%
- viability, T/C [17]: 84.8%
- viability, T/C [37]: 135%
- viability, T/C [19]: 91.5%
- viability, T/C [20]: 87.7%
- viability, T/C [21]: 91.7%
- viability, T/C [22]: 98.7%
- viability, T/C [23]: 105%
- viability, T/C [38]: 134%
- viability, T/C [25]: 88.2%
- viability, T/C [26]: 73.3%
- viability, T/C [27]: 69.8%
- viability, T/C [28]: 81%
- viability, T/C [29]: 74.2%
- viability, T/C [39]: 109%
- viability, T/C [31]: 94.7%
- viability, T/C [32]: 89.5%
- viability, T/C [33]: 75.6%
- viability, T/C [34]: 68.2%
- viability, T/C [35]: 61.9%
- viability, T/C [40]: 131%

Compound: COC(=O)c1ccc2c(C(=Nc3ccc(N(C)C(=O)CN4CCN(C)CC4)cc3)c3ccccc3)c(O)[nH]c2c1 + COc1cc2nc(C)nc(NC(C)c3cc(N)cc(C(F)(F)F)c3)c2cc1OC1CCOC1
- IC50 [1]: > 10000 nM
- IC50 [2]: > 10000 nM
- IC50 [3]: > 10000 nM
- IC50 [4]: > 10000 nM
- IC50 [5]: 4740 nM
- viability, T/C [7]: 71.2%
- viability, T/C [8]: 44.7%
- viability, T/C [9]: 48.3%
- viability, T/C [10]: 71.4%
- viability, T/C [11]: 85.2%
- viability, T/C [36]: 113%
- viability, T/C [13]: 59.1%
- viability, T/C [14]: 51.8%
- viability, T/C [15]: 92%
- viability, T/C [16]: 75.1%
- viability, T/C [17]: 62.1%
- viability, T/C [37]: 73.7%
- viability, T/C [19]: 64.5%
- viability, T/C [20]: 57.3%
- viability, T/C [21]: 55.1%
- viability, T/C [22]: 51.6%
- viability, T/C [23]: 51%
- viability, T/C [38]: 77.9%
- viability, T/C [25]: 64.3%
- viability, T/C [26]: 64.6%
- viability, T/C [27]: 50.2%
- viability, T/C [28]: 55.2%
- viability, T/C [29]: 66.1%
- viability, T/C [39]: 88.1%
- viability, T/C [31]: 66.2%
- viability, T/C [32]: 53.3%
- viability, T/C [33]: 56.3%
- viability, T/C [34]: 80.9%
- viability, T/C [35]: 128%
- viability, T/C [40]: 0.38%

Compound: CN(C)C/C=C/C(=O)Nc1cc2c(Nc3ccc(F)c(Cl)c3)ncnc2cc1O[C@H]1CCOC1 + CC1OCC2(CCN(c3cnc(Sc4ccnc(N)c4Cl)c(N)n3)CC2)C1N
- IC50 [1]: > 100 nM
- IC50 [2]: 19.7 nM
- IC50 [3]: > 100 nM
- IC50 [4]: 4.46 nM
- IC50 [5]: 58.2 nM
- viability, T/C (second compound 0.1 µM, first compound 0.000316 µM): 76.6%
- viability, T/C (second compound 0.1 µM, first compound 0.001 µM): 77.2%
- viability, T/C (second compound 0.1 µM, first compound 0.00316 µM): 68%
- viability, T/C [6]: 93.6%
- viability, T/C [7]: 70.3%
- viability, T/C [8]: 64.3%
- viability, T/C (second compound 0.316 µM, first compound 0.000316 µM): 78.1%
- viability, T/C (second compound 0.316 µM, first compound 0.001 µM): 75%
- viability, T/C (second compound 0.316 µM, first compound 0.00316 µM): 85.8%
- viability, T/C [12]: 53.3%
- viability, T/C [13]: 55.1%
- viability, T/C [14]: 40.4%
- viability, T/C (second compound 1 µM, first compound 0.000316 µM): 74.4%
- viability, T/C (second compound 1 µM, first compound 0.001 µM): 74.1%
- viability, T/C (second compound 1 µM, first compound 0.00316 µM): 78.8%
- viability, T/C [18]: 71.2%
- viability, T/C [19]: 90.8%
- viability, T/C [20]: 67.4%
- viability, T/C (second compound 3.16 µM, first compound 0.000316 µM): 53.6%
- viability, T/C (second compound 3.16 µM, first compound 0.001 µM): 55.6%
- viability, T/C (second compound 3.16 µM, first compound 0.00316 µM): 38.9%
- viability, T/C [24]: 59.3%
- viability, T/C [25]: 39.4%
- viability, T/C [26]: 36.8%
- viability, T/C (second compound 10 µM, first compound 0.000316 µM): 80%
- viability, T/C (second compound 10 µM, first compound 0.001 µM): 81.7%
- viability, T/C (second compound 10 µM, first compound 0.00316 µM): 71.3%
- viability, T/C [30]: 72.9%
- viability, T/C [31]: 53.3%
- viability, T/C [32]: 46.4%

Compound: Cn1nccc1Nc1nccc(-c2cc3c(s2)C(C)(C)N(CCN2CCOCC2)C3=O)n1
- viability, T/C (compound 0.0316 µM): 95.4% [middle of 5 runs]
- viability, T/C (compound 0.1 µM): 92.5% [middle of 5 runs]
- viability, T/C (compound 0.316 µM): 87.5% [middle of 5 runs]
- viability, T/C (compound 1 µM): 69.5% [middle of 5 runs]
- viability, T/C (compound 10 µM): 31.8% [middle of 5 runs]

Compound: CNCc1ccccc1-c1csc(C(C)Nc2nc(C)nc3cc(OC)c(OC)cc23)c1 (configuration not stated)
- IC50 (compound alone, run of 07/19/2021): 3.87 µM [middle of 5 runs]
- IC50 (compound alone, run of 07/26/2021): 3.11 µM [middle of 5 runs]

Compound: Cn1nccc1Nc1nccc(-c2cc3c(s2)C(C)(C)N(CCN2CCOCC2)C3=O)n1 + COc1cc2nc(C)nc(NC(C)c3cc(N)cc(C(F)(F)F)c3)c2cc1OC1CCOC1
- IC50 [1]: 4150 nM
- IC50 [2]: 2180 nM
- IC50 [3]: 1760 nM
- IC50 [4]: 488 nM
- IC50 [5]: 1270 nM
- viability, T/C [7]: 98.2%
- viability, T/C [8]: 73.5%
- viability, T/C [9]: 83.4%
- viability, T/C [10]: 59.7%
- viability, T/C [11]: 67.8%
- viability, T/C [36]: 30.3%
- viability, T/C [13]: 77.9%
- viability, T/C [14]: 89.5%
- viability, T/C [15]: 65%
- viability, T/C [16]: 70.8%
- viability, T/C [17]: 40.6%
- viability, T/C [37]: 23.2%
- viability, T/C [19]: 82.1%
- viability, T/C [20]: 80.7%
- viability, T/C [21]: 52.8%
- viability, T/C [22]: 72.5%
- viability, T/C [23]: 36.3%
- viability, T/C [38]: 25.9%
- viability, T/C [25]: 60.4%
- viability, T/C [26]: 74.3%
- viability, T/C [27]: 46.5%
- viability, T/C [28]: 46.7%
- viability, T/C [29]: 24.4%
- viability, T/C [39]: 23%
- viability, T/C [31]: 55.7%
- viability, T/C [32]: 59.2%
- viability, T/C [33]: 59.1%
- viability, T/C [34]: 58.8%
- viability, T/C [35]: 18.5%
- viability, T/C [40]: 14.3%
